Assay results reported in PubChem BioAssay AID179 (DTP/NCI, 2004).
Calls of active or inactive are those of the source.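 How the source made its calls: active means compounds giving half or more protection of infected cells from virus-caused growth loss, again on retest; inactive means the rest.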 Where a SMILES comes first, the peptide text is derived from it. The star is where a group is joined. Boc = CC(C)(C)OC(=O)*

System: CEM cells HIV-1 protection, formazan growth assay
Test: NCI AIDS Antiviral Assay
Details: for IC50: measured here: growth of uninfected CEM cells
How it was run: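 Screen of anti-HIV-1 activity in human CEM cells using a formazan-based growth measurement at five drug concentrations. Hits with 50% or greater protection were repeated, and confirmation required reproducible complete protection.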

Row | SMILES | EC50 [µM] | IC50 [µM] | outcome
1 | COc1cc([C@H]2CC(=O)C[C@@H](c3cc(OC)c(OC)c(OC)c3)C23C(=O)c2ccccc2C3=O)cc(OC)c1OC | > 200 | > 200 | 
2 | N#CCC(=O)N/N=C1\C(=O)N(c2ccc(Cl)cc2)C(=O)C(=O)C1c1nc2ccccc2o1 (stereo not given) |  |  | inactive
3 | CC1=Nc2nc3ccccc3n2C(C)(C)C1 | > 174 | 112 | 
4 | CC(=O)N1CCN(CCCCN2c3ccccc3Sc3cc(N=[N+]=[N-])ccc32)CC1 | > 200 | 6.61 | 
5 | Brc1cc2c(cc1C1SCCS1)OCO2 | > 107 | 60.3 | 
6 | CC(=O)NC1(C)CCC(C(C)(C)NC(C)=O)CC1 (stereo not given) | > 200 | > 200 | 
7 | CC1C(c2ccc(Cl)cc2)c2cc3c(cc2OC1N1CCOCC1)OCO3 (stereo not given) | > 100 | 21.4 | 
8 | COC1=CCC2=C(CC[C@H]3[C@H]2CCP3(C)=S)C1 (stereo not given in full) |  |  | inactive
9 | OC1C2[C@@H](O)CCN2CC[C@H]1O (stereo not given in full) | > 759 | > 759 | 
10 | COc1ccc(-c2oc3c(CC(=O)O)cccc3c(=O)c2OC)cc1 | > 200 | 112 | 
11 | COc1ccc(Cc2c3cc(OC)c(OC)cc3cc[n+]2C)cc1 | > 550 | 107 | 
12 | C=CCOCn1cc(F)c(=O)[nH]c1=O | > 200 | > 200 | 
13 | O=c1c2ccccc2nc(-c2ccccc2)n1/N=C/c1ccccc1[N+](=O)[O-] | > 50.1 | > 50.1 | 
14 | O=C1c2ccsc2C(=O)c2ccsc21 | > 6.61 | 5.13 | 
15 | CSC1=NCc2c(sc3c2CCCC3)N1 | > 200 | 35.5 | 
16 | CCCCCC=C(c1cc(Cl)c(OC)c(C(=O)OCCC)c1)c1cc(Cl)c(OC)c(C(=O)OCCC)c1 | > 12.3 | > 12.3 | 
17 | O=C(O)CCSSc1ccc([N+](=O)[O-])cc1[N+](=O)[O-] | > 200 | 15.8 | 
18 | CCSSc1ccccc1C(=O)O | > 200 | 32.4 | 
19 | CCOC(=O)NC(Nc1ncccn1)(C(F)(F)F)C(F)(F)F | > 191 | 186 | 
20 | COc1ccc(C(=O)N=C2N(c3ccccc3)C(=Nc3ccccc3)C(=Nc3ccccc3)N2c2ccccc2)cc1 | > 200 | 8.32 | 
21 | O=C(Cn1c(C(=O)c2ccccc2)nc2ccccc21)c1ccccc1 | > 200 | 7.41 | 
22 | c1ccc2c3[nH]c(c2c1)=Nc1ccc(cc1)-c1nc2cc(ccc2o1)N=c1[nH]c(c2ccccc12)=Nc1ccc2nc(oc2c1)-c1ccc(cc1)N=3 | > 200 | 40.7 | 

Row | SMILES | EC50 [µM] | IC50 [µM] | outcome
23 | Cc1nc2c(=O)n(-c3ccccc3)c(=O)n(-c3ccccc3)c2o1 | > 200 | > 200 | 
24 | C(=Nc1ccccc1)c1ccc(C=Nc2ccccc2)cc1 | > 3.63 | > 3.63 | 
25 | Cc1cc(N(CCC#N)CCC#N)ccc1/C=C1N=C(/C=C\c2ccccc2)N(NC(=O)CC(=O)Nc2ccccc2Cl)C\1=O |  |  | inactive
26 | CC(=O)Nc1nnc(SSc2nnc(NC(C)=O)s2)s1 | 36.3 | 186 | 
27 | CC1(O)Oc2ccc3ccccc3c2C=C1C(N)=O (stereo not given) | > 200 | 182 | 
28 | COC(=O)C1c2c(c3ccccc3n2C(=O)OC)CCN2CCC1C(S(=O)(=O)c1ccccc1)C2=O (stereo not given) | 363 | 447 | 
29 | c1ccc2c(c1)[nH]c1c[n+]3c(c[n+]12)[nH]c1ccccc13 | > 200 | > 200 | 
30 | CCc1c(O)nc(Nc2nc3ccccc3[nH]2)[nH]c1=O | > 200 | > 200 | 
31 | O=C1NC2C=CN(Cc3ccccc3)C=C2C(=O)N2CCCC12 (stereo not given) | > 6.46 | > 6.46 | 
32 | CN(C)CCN(C)c1ccc2c(=O)n(CCN(C)C)c(=O)n3c4ccccc4c(=O)c1c23 | > 0.2 | 0.11 | 
33 | O=Nc1c(O)[nH]c(=O)[nH]c1=O | > 200 | > 200 | 
34 | Cc1cc(C)nc(NS(=O)(=O)c2ccc(NC(=O)COC(=O)c3cccc4c(=O)c5ccccc5[nH]c34)cc2)n1 |  |  | inactive
35 | CC(C)(C)OC[C@H]1N([C@H](COCc2ccccc2)c2ccccc2)C(=O)C1(C)C | > 170 | 117 | 
36 | CC1(C)CNC[C@](C)(OCc2ccccc2)N1 | > 200 | > 200 | 
37 | CC(=O)/C(C=Nc1c(C)n(C)n(-c2ccccc2)c1=O)=C(/C)O | > 200 | > 200 | 
38 | CC(NC(=O)C(NC(=O)OC(C)(C)C)C(C)C)C(=O)N1CCCC1C(=O)O (stereo not drawn) (Boc-Val-Ala-Pro-OH; configuration not given here) | > 200 | > 200 | 
39 | N#C/C(=C\c1ccc(-c2ccccc2)cc1)C(=O)c1ccccc1 | > 83.2 | 27.5 | 
40 | CCCCc1ccc(Nc2nc3c(ncn3C3CC(O)C(CN=[N+]=[N-])O3)c(=O)[nH]2)cc1 (stereo not given) | > 200 | > 200 | 
41 | Cc1c(Cc2ccccc2)n(C(C)OCCO)c(=O)[nH]c1=O (stereo not given) | > 200 | > 200 | 
42 | COc1c(C(=O)CC2c3c(cc4oc(C)cc(=O)c4c3OC)OC(=N)C2c2nc3ccccc3[nH]2)c(O)c(OC)c2occc12 (stereo not given) | 25.1 | 49 | 
43 | COC(=O)c1ccccc1NC(=O)C(=O)CC(=O)c1ccccc1NC1=CC(=O)C(=O)c2ccccc21 | > 27.5 | 4.68 | 
44 | CCOC(=O)c1[nH]n(-c2ccccc2)c(=O)c1C=NC(=S)C(N)=S | > 200 | 33.9 | 

Row | SMILES | EC50 [µM] | IC50 [µM] | outcome
45 | O=C1Cc2c([nH]c3c(Br)cccc23)-c2ccccc2N1 | > 200 | 29.5 | 
46 | CCCC[C@H]1CCN2C[C@@H](O)[C@@H](O)[C@H]2[C@@H]1O | > 200 | > 200 | 
47 | Cc1cc(-c2ccc(N=Nc3ccc4c(S(=O)(=O)O)cc(S(=O)(=O)O)c(N)c4c3O)c(C)c2)ccc1N=Nc1ccc2c(S(=O)(=O)O)cc(S(=O)(=O)O)c(N)c2c1O | > 9.33 |  | 
48 | Cc1cc(=O)n(-c2c(C)cccc2Cl)c(/C=C(\O)c2ccncc2)n1 | > 4.07 | > 4.07 | 
49 | CCOC(=O)/C(C#N)=C/c1[nH]c(C)c(C)c1C |  |  | inactive
50 | O=C1CSC(c2cccc(Cl)c2)N1c1ccc(-n2c(-c3ccccc3)nc3ccccc3c2=O)cc1 (stereo not given) | > 200 | 138 | 
51 | O=C1N=CN=C2C=CC(Cl)=C(I)C12 (stereo not given) | > 85.1 | > 85.1 | 
52 | C[N+](C)(CCCn1ccnc1[N+](=O)[O-])CCCn1ccnc1[N+](=O)[O-] | > 200 | > 200 | 
53 | COC(=O)/N=[N+](\[O-])C(c1ccc(Cl)cc1)c1ccc(Cl)cc1 | > 200 | 64.6 | 
54 | COC(=O)c1cc(C#N)[nH]c1-c1cccs1 | > 200 | 40.7 | 
55 | O=C1CCCC/C1=C/c1ccccc1 | > 200 | 12.9 | 
56 | C/C(O)=C(/C=N/C(=S)Nc1ccc(S(N)(=O)=O)cc1)C(=O)Nc1ccccc1C | > 200 | > 200 | 
57 | CC(=O)OCC1C(C(C)OC(C)=O)CCC2C1CCC1(C)C(OC(C)=O)CCC21 (stereo not given) | > 20.4 | 16.6 | 
58 | O=c1oc2ccccc2c(O)c1C(c1ccc2c(c1)OCO2)N1CCOCC1 (stereo not given) | > 200 | > 100 | 
59 | CC1=C/C(=C(/c2cccc(S(=O)(=O)O)c2)c2cc(C)c(O)c(C(=O)O)c2)C=C(C(=O)O)C1=O |  |  | inactive
60 | CCOC(=O)C1=C(c2ccccc2)C12N(Cc1ccccc1)C(=O)C2(c1ccccc1)c1ccccc1 (stereo not given) | > 200 | 11 | 
61 | O=C1c2ccccc2C(=O)N1N1C(=O)C2C3CCC(O3)C2C1=O (stereo not given) | > 200 | 95.5 | 
62 | N#CC1(C=O)c2ccccc2C=CN1C(=O)c1ccccc1 (stereo not given) | > 91.2 | > 91.2 | 
63 | COc1cccc(CCCCCCCC(=O)O)c1 | > 200 | > 200 | 
64 | CC(C)c1c(O[Si](C(C)C)(C(C)C)C(C)C)c2c3c(ccc4c3c1OC4(C)C)C(C)CC2 (stereo not given) | > 200 | > 200 | 
65 | CCC1OC2C(CC=C(C)C)=C3OC(C)(O)C(C)(CC)C(OC(=O)c4ccccc4)C3=C3OC(=O)C=C1C32 (stereo not given) | > 200 | 18.6 | 
66 | CC(C)OC(=O)c1ccc(NCC2=CC(=O)C=CC2=O)cc1 | > 200 | 7.76 | 

Row | SMILES | EC50 [µM] | IC50 [µM] | outcome
67 | COC(=O)C1=Nc2c(C)nn(-c3ccccc3)c2N=C(c2ccccc2)C1 | > 200 | > 200 | 
68 | O=C(NC1CCCCC1NC(c1ccccc1)(c1ccccc1)c1ccccc1)C(=O)NC1CCCCC1NC(c1ccccc1)(c1ccccc1)c1ccccc1 (stereo not given) | > 100 | > 100 | 
69 | COC(=O)CCC(=O)CC(=O)C(=O)Nc1ccc(F)cc1 | > 45.7 | > 45.7 | 
70 | O=[N+]([O-])c1cccc(C2ON2C2CCCCC2)c1 (stereo not given) | > 89.1 | 5.01 | 
71 | COc1ccc(-c2c(-c3ccc(OC)cc3)n3c(=O)n(C)c(=O)n23)cc1 | > 200 | 79.4 | 
72 | CC(C)(C)n1c(=O)[nH]c(=O)n1C(C)(C)C | > 200 | > 200 | 
73 | CC1=N[C@](C)(C2CC3C=CC2C3=O)COC1=O (stereo not given in full) | > 562 | > 562 | 
74 | C=C1C(O)O[C@@H]2O[C@@]3(C)CC[C@H]4[C@H](C)CC[C@@H]1[C@@]24OO3 (stereo not given in full) | > 200 | 8.71 | 
75 | Cc1nc2c(nc1C)C(=O)C(Br)=CC2=O |  |  | inactive
76 | COC(=O)c1cc(=O)nc2cc3cccccc3n12 |  |  | inactive
77 | COc1cc(OC)nc(NC(=O)NS(=O)(=O)c2cccc3ncn(C)c(=O)c23)n1 |  |  | inactive
78 | COc1ccc(-c2cc(=O)c3ccc(O)cc3o2)cc1 | > 83.2 | > 83.2 | 
79 | CCCCCCCNC(=S)N/N=C/c1ccccc1O | > 200 | 10.5 | 
80 | N#C/C(=C\c1ccc(Cl)cc1)C(=O)c1ccccc1 | > 83.2 | > 83.2 | 
81 | CC(C)CCCC(C)[C@H]1CCC2[C@@H]3CCC4C[C@@H](CCC=C(c5cc(Cl)c(O)c(C(=O)NO)c5)c5cc(Cl)c(O)c(C(=O)NO)c5)CC[C@]4(C)C3CC[C@@]21C (stereo not given in full) | > 200 | > 200 | 
82 | O=[N+]([O-])c1cc(Cl)ccc1Sc1ccc(Cl)cc1[N+](=O)[O-] | > 129 | > 129 | 
83 | CCOC(=O)c1cc(C2CCN(c3ccccc3)C2=O)c(/C(O)=C/C(C)=O)[nH]1 (stereo not given) | > 200 | 5.01 | 
84 | O=C(O)C1SCCS1 | > 200 | > 200 | 
85 | N#CC(=C1CCN(Cc2ccccc2)CC1)c1ccccc1 | > 200 | 81.3 | 
